From PubChem BioAssay AID2060616 (Molecular Pharmacology Branch, DTP, NCI, 2025)
Values belong to the compound of their own block, whether it stands above or below them.

System: 377384-186-R-J1-PDC complex spheroid viability
Assay: Anticancer human tumor 377384-186-R-J1-PDC patient-derived pancreatic carcinoma cell line growth inhibition [CLK]
Details: for IC50: curve of first compound; for viability, T/C: stronger effect = lower value
Method in brief: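 Patient-derived tumor cells grown as complex spheroids with HUVEC endothelial cells and mesenchymal stem cells, treated with drug combinations. Concentrations descend in half-log steps from near clinical Cmax, or from 10 microM if Cmax unknown.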

[1] = second compound 0.0316 µM, first compound 0.0316 µM
[2] = second compound 0.0316 µM, first compound 0.1 µM
[3] = second compound 0.0316 µM, first compound 0.316 µM
[4] = second compound 0.0316 µM, first compound 1 µM
[5] = second compound 0.0316 µM, first compound 3.16 µM
[6] = second compound 0.0316 µM, first compound 10 µM
[7] = second compound 0.1 µM, first compound 0.0316 µM
[8] = second compound 0.1 µM, first compound 0.1 µM
[9] = second compound 0.1 µM, first compound 0.316 µM
[10] = second compound 0.1 µM, first compound 1 µM
[11] = second compound 0.1 µM, first compound 3.16 µM
[12] = second compound 0.1 µM, first compound 10 µM
[13] = second compound 0.316 µM, first compound 0.0316 µM
[14] = second compound 0.316 µM, first compound 0.1 µM
[15] = second compound 0.316 µM, first compound 0.316 µM
[16] = second compound 0.316 µM, first compound 1 µM
[17] = second compound 0.316 µM, first compound 3.16 µM
[18] = second compound 0.316 µM, first compound 10 µM
[19] = second compound 1 µM, first compound 0.0316 µM
[20] = second compound 1 µM, first compound 0.1 µM
[21] = second compound 1 µM, first compound 0.316 µM
[22] = second compound 1 µM, first compound 1 µM
[23] = second compound 1 µM, first compound 3.16 µM
[24] = second compound 1 µM, first compound 10 µM
[25] = second compound 3.16 µM, first compound 0.0316 µM
[26] = second compound 3.16 µM, first compound 0.1 µM
[27] = second compound 3.16 µM, first compound 0.316 µM
[28] = second compound 3.16 µM, first compound 1 µM
[29] = second compound 3.16 µM, first compound 3.16 µM
[30] = second compound 3.16 µM, first compound 10 µM
[31] = second compound 10 µM, first compound 0.0316 µM
[32] = second compound 10 µM, first compound 0.1 µM
[33] = second compound 10 µM, first compound 0.316 µM
[34] = second compound 10 µM, first compound 1 µM
[35] = second compound 10 µM, first compound 3.16 µM
[36] = second compound 10 µM, first compound 10 µM
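Also: spheroids exposed to agents for 7 days before reading.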
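For viability, T/C in this document: luminescence signal used as a stand-in for viable cells.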

IC50 (second compound 0.0316 µM): < 0.0316 µM | IC50 (second compound 0.1 µM): < 0.0316 µM | IC50 (second compound 0.316 µM): < 0.0316 µM | IC50 (second compound 1 µM): < 0.0316 µM | IC50 (second compound 3.16 µM): < 0.0316 µM | IC50 (second compound 10 µM): < 0.0316 µM
SMILES: C#Cc1c(F)ccc2cc(O)cc(-c3ncc4c(N5CC6CCC(C5)N6)nc(OCC56CCCN5CC(F)C6)nc4c3F)c12 (centres undefined) + CNC(=O)c1ccc(Nc2nc(OC3CCCC3)c3c(-c4ccc5nc(C)oc5c4)c[nH]c3n2)c(OC)c1
viability, T/C [1]: 23.6% | viability, T/C [2]: 11.7% | viability, T/C [3]: 5.37% | viability, T/C [4]: 4.27% | viability, T/C [5]: 2.38% | viability, T/C [6]: 1.98% | viability, T/C [7]: 22% | viability, T/C [8]: 8.53% | viability, T/C [9]: 5.17% | viability, T/C [10]: 2.73% | viability, T/C [11]: 2.7% | viability, T/C [12]: 2.19% | viability, T/C [13]: 7.28% | viability, T/C [14]: 4.75% | viability, T/C [15]: 3.08% | viability, T/C [16]: 2.69% | viability, T/C [17]: 2.74% | viability, T/C [18]: 2.17% | viability, T/C [19]: 6.44% | viability, T/C [20]: 3.72% | viability, T/C [21]: 2.21% | viability, T/C [22]: 1.64% | viability, T/C [23]: 1.66% | viability, T/C [24]: 1.12% | viability, T/C [25]: 4.56% | viability, T/C [26]: 3.31% | viability, T/C [27]: 2.47% | viability, T/C [28]: 2.25% | viability, T/C [29]: 1.64% | viability, T/C [30]: 1.59% | viability, T/C [31]: 4.62% | viability, T/C [32]: 2.7% | viability, T/C [33]: 2.29% | viability, T/C [34]: 1.95% | viability, T/C [35]: 1.6% | viability, T/C [36]: 2.24%

IC50 (second compound 0.0316 µM): 2.06 µM | IC50 (second compound 0.1 µM): 0.145 µM | IC50 (second compound 0.316 µM): < 0.0316 µM | IC50 (second compound 1 µM): < 0.0316 µM | IC50 (second compound 3.16 µM): < 0.0316 µM | IC50 (second compound 10 µM): < 0.0316 µM
SMILES: C=C(F)C(=O)N1CCN(c2nc(OCC3CCCN3C)nc3c2CCN(c2cccc4cccc(Cl)c24)C3)CC1CC#N (centres undefined) + CNC(=O)c1ccc(Nc2nc(OC3CCCC3)c3c(-c4ccc5nc(C)oc5c4)c[nH]c3n2)c(OC)c1
viability, T/C [1]: 99.6% | viability, T/C [2]: 93.8% | viability, T/C [3]: 102% | viability, T/C [4]: 96.6% | viability, T/C [5]: 22.3% | viability, T/C [6]: 0.88% | viability, T/C [7]: 54.3% | viability, T/C [8]: 50.9% | viability, T/C [9]: 45.7% | viability, T/C [10]: 40.4% | viability, T/C [11]: 23.1% | viability, T/C [12]: 0.37% | viability, T/C [13]: 21.2% | viability, T/C [14]: 22.8% | viability, T/C [15]: 20.7% | viability, T/C [16]: 22.1% | viability, T/C [17]: 12% | viability, T/C [18]: 0.26% | viability, T/C [19]: 19.5% | viability, T/C [20]: 19.3% | viability, T/C [21]: 19% | viability, T/C [22]: 17.9% | viability, T/C [23]: 11.1% | viability, T/C [24]: 0.2% | viability, T/C [25]: 20.5% | viability, T/C [26]: 20.9% | viability, T/C [27]: 18.3% | viability, T/C [28]: 20.3% | viability, T/C [29]: 8.66% | viability, T/C [30]: 0.22% | viability, T/C [31]: 20.6% | viability, T/C [32]: 21.4% | viability, T/C [33]: 21.9% | viability, T/C [34]: 17.1% | viability, T/C [35]: 8.61% | viability, T/C [36]: 0.3%
